Where two headings read alike, the source gives them in different places.
What was measured:
[1] = test system: lymphoblasts from G2019S LRRK2 PD patients; settings: for Centrosomal cohesion deficits: three lymphoblast lines from G2019S LRRK2 PD patients, short-term application of LRRK2 kinase inhibitor, Figure 1A; for reversal of the cohesion deficit: five G2019S LRRK2 PD patients, dose-response
From the text: Peripheral blood mononuclear cells (PBMCs) were collected and processed according to manufacturer's instructions, and lymphocytes were immortalized by infection with Epstein-Barr virus (EBV) as described. Briefly, cell lines were established from freshly isolated or cryopreserved lymphocytes using standard EBV transformation protocols which include cell separation by gradient centrifugation and lymphocyte growth enhancement by 1% (v/v) of the mitogenic phytohemagglutinin-M (PHA-M, ThermoFisher Scientific, 10576015). Cell lines were maintained in RPMI 1640 medium supplemented with 20 % fetal bovine serum, 2 % L-glutamine, 20 units/mL penicillin and 20 µg/ml streptomycin in T75 flasks in 5 % CO2 at 37 °C. Cells were maintained at a density of 10^6 cells/mL, with cell density monitored every other day using trypan blue staining.
Coverslips (13 mm diameter) were placed into 24-well plates and coated with Cell-Tak Cell and Tissue Adhesive solution (Corning, nr. 354240) according to manufacturer's instructions. After 20 minutes incubation at room temperature, the solution was removed, and coverslips were rinsed twice with distilled water followed by air-drying. Lymphoblast cells (200,000/well) were added to dry coated coverslips, and cells attached by slight centrifugation at 690 g for 10 minutes at room temperature (without brake). Cells were fixed with 2 % paraformaldehyde (PFA) in phosphate-buffered saline (PBS) for 20 minutes at room temperature, followed by 5 min of ice-cold methanol fixation before permeabilization with 0.2% Triton-X100/PBS for 20 min. After blocking for 1 hour in 0.5% BSA (w/v) in 0.2% Triton-X100/PBS (blocking buffer), cells were incubated with primary antibodies overnight at 4 °C in blocking buffer. Primary antibodies included mouse monoclonal anti-γ-tubulin (1:1000; Abcam ab11316), rabbit polyclonal anti-pericentrin (1:1000; Abcam ab4448) or rabbit monoclonal anti-phospho-Rab10 (1:100; Abcam ab237703). The following day, coverslips were washed three times 10 minutes in 0.2% Triton-X100/PBS, followed by incubation with secondary antibodies (Alexa488-conjugated goat anti-mouse (1:1000; Invitrogen) and Alexa594-conjugated goat anti-rabbit (1:1000; Invitrogen)) in blocking buffer for 1 hour. Coverslips were washed three times in 0.2% Triton-X100/PBS, rinsed in PBS and mounted in mounting medium with DAPI (Vector Laboratories). For staining with the anti-phospho-Rab10 antibody, the methanol fixation was omitted, and 0.2% Triton-X100 was replaced by 0.1% saponin throughout. For treatment of cells with MLi2, cells were seeded on coated coverslips as described above, and incubated with or without MLi2 (generous gift of D. Alessi, University of Dundee, UK) (or DMSO as control) at the indicated concentrations for two hours at 37 °C, before attachment by slight centrifugation followed by fixation as described above.
Images were acquired on a Leica TCS-SP5 confocal microscope using a 63X 1.4 NA oil UV objective (HCX PLAPO CS). Images were collected using single excitation for each wavelength separately, and dependent on secondary antibodies (488 nm Argon Laser line and a 498-551 nm emission band pass; 543 HeNe laser line and a 615-671 nm emission band pass; 405 nm UV diode and a 418-467 nm emission band pass). Around 30 image sections of selected areas were acquired with a step size of 0.5 µm, and z-stack images analyzed and processed using Leica Applied Systems (LAS AF6000) image acquisition software. The same laser intensity settings, exposure times and zoom were used for image acquisition of individual experiments to be quantified.

[2] = test system: sporadic PD lymphoblasts; assay: Centrosomal cohesion deficit in lymphoblasts from sporadic PD patients (immunofluorescence, confocal imaging); format: cell-based, human; settings: subset of sporadic PD patients with deficit (not G2019S carriers); short-term application of 10 nM MLi2; Figures 4A to 4D
From the text: Peripheral blood mononuclear cells (PBMCs) were collected and processed according to manufacturer's instructions, and lymphocytes were immortalized by infection with Epstein-Barr virus (EBV) as described. Briefly, cell lines were established from freshly isolated or cryopreserved lymphocytes using standard EBV transformation protocols which include cell separation by gradient centrifugation and lymphocyte growth enhancement by 1% (v/v) of the mitogenic phytohemagglutinin-M (PHA-M, ThermoFisher Scientific, 10576015). Cell lines were maintained in RPMI 1640 medium supplemented with 20 % fetal bovine serum, 2 % L-glutamine, 20 units/mL penicillin and 20 µg/ml streptomycin in T75 flasks in 5 % CO2 at 37 °C. Cells were maintained at a density of 10^6 cells/mL, with cell density monitored every other day using trypan blue staining. […]
Images were acquired on a Leica TCS-SP5 confocal microscope using a 63X 1.4 NA oil UV objective (HCX PLAPO CS). […] Around 30 image sections of selected areas were acquired with a step size of 0.5 µm, and z-stack images analyzed and processed using Leica Applied Systems (LAS AF6000) image acquisition software. The same laser intensity settings, exposure times and zoom were used for image acquisition of individual experiments to be quantified.

Question: With `O=C(Nc1cccnc1)c1cc(-c2ccnc(F)c2)ccc1OCc1ccccc1` [GSK2578215A, 2-(benzyloxy)-5-(2-fluoropyridin-4-yl)-N-(pyridin-3-yl)benzamide] as the compound, how does the Centrosomal cohesion deficits [1] read?
Answer: could be reversed

Question: `CC1CN(c2cc(-c3n[nH]c4ccc(OC5(C)CC5)cc34)ncn2)CC(C)O1` (centres unmarked) [MLi2, 3-(4-Pyrimidinyl) Indazole] was tested. Which Centrosomal cohesion deficits [2] did it give?
Answer: reverted

Question: What about the “reversal of the cohesion deficit” value ([1]; 1 nM MLi2, Figures 3A and 3B) of the same compound?
Answer: significant reversal

Question: And the “reversal of the cohesion deficit” value ([1]; 10 nM MLi2, Figures 3A and 3B)?
Answer: complete reversal

Question: What about the “Centrosomal deficits in all G2019S LRRK2 PD samples” value ([1]; larger sampling, individual samples, Figure 4C) of the same compound?
Answer: reverted by MLi2 in all cases

Question: And the centrosomal alterations ([1]; larger sampling, short-term application of 10 nM MLi2, Figures 4A and 4B)?
Answer: reverted

Question: And the Centrosomal cohesion deficits [1]?
Answer: could be reversed

Question: What about the “centrosomal cohesion deficits upon removal of kinase inhibitor” value ([1]; washout of inhibitor, G2019S LRRK2 PD samples, Figures 3A and 3B) of the same compound?
Answer: reverted back to the ones observed in the absence of inhibitor
